B1: IL-4: cytokine known to promote ILC2 activation (protein, UniProt P05112 25-153, looked up)
Interleukin-4: HKCDITLQEIIKTLNSLTEQKTLCTELTVTDIFAASKNTTEKETFCRAATVLRQFYSHHEKDTRCLGATAQQFHRHKQLIRFLKRLDRNLWGLAGLNSCPVKEANQSTLENFLERLKTIMREKYSKCSS
B2: IL-33: cytokine known to promote ILC2 activation (protein, UniProt O95760 1-270, looked up)
Interleukin-33: MKPKMKYSTNKISTAKWKNTASKALCFKLGKSQQKAKEVCPMYFMKLRSGLMIKKEACYFRRETTKRPSLKTGRKHKRHLVLAACQQQSTVECFAFGISGVQKYTRALHDSSITGISPITEYLASLSTYNDQSITFALEDESYEIYVEDLKKDEKKDKVLLSYYESQHPSNESGDGVDGKMLMVTLSPTKDFWLHANNKEHSVELHKCEKPLPDQAFFVLHNMHSNCVSFECKTDPGVFIGVKDNHLALIKVDSSENLCTENILFKLSET
B3: IL-25: activating cytokine used in ILC2 cultures (protein, UniProt Q9H293 33-177, looked up)
Interleukin-25: YSHWPSCCPSKGQDTSEELLRWSTVPVPPLEPARPNRHPESCRASEDGPLNSRAISPWRYELDRDLNRLPQDLYHARCLCPHCVSLQTGSHMDPRGNSELLYHNQTVFYRRPCHGEKGTHKGYCLERRLYRVSLACVCVRPRVMG

System: NMBR expression by ILC2s
Experiment: NMBR expression by cultured lung ILC2s, flow cytometry
Assay type: cell-based, mouse
Details: ILC2s day 7 post-Nb, IL-2 and IL-7, overnight culture
From the text: FIG. 9. Basophils regulate NMBR expression. ILC2s were sort-purified from the lung of Nb-infected mice (day 7) and stimulated with survival cytokines (IL-7 and IL-2) and also with activated basophils, IL-4 or IL-33 overnight. NMBR expression was monitored by flow cytometric analysis post-culture. Data are presented as […] mean fluorescent intensity (GMFI). Statistical comparisons were done using a Student's t-test.
FIG. 14. Prostaglandin E2 upregulates expression of NMBR on lymphocytes. Lung ILC2s were sort-purified from the lungs of mice on day 7 post-Nb and cultured with a combination of survival cytokines (IL-2 and IL-7) and/or activating cytokines (IL-25 and IL-33). In addition, cultures were treated with NMB or prostaglandin E2 (PGE2) and the expression of NMBR was measured by flow cytometric analysis on day 4 post-culture. Statistical analysis was performed using a student's t-test. Negative NMBR staining as determined by an isotype control antibody is also shown (Isot).
NMBR expression by lung ILC2s was reduced when basophils are depleted following an Nb infection. To determine whether basophils directly mediate expression of NMBR or whether they operate through intermediate pathways, ILC2s were sort-purified from the lungs of Nb-infected mice (day 7) and cultured with the survival cytokines IL-2 and IL-7. Additionally, the ILC2s were cultured with activated basophils, IL-4, or IL-33 overnight. NMBR expression was subsequently monitored by flow cytometric analysis post-culture.
To better determine the mechanisms through which basophils regulate expression of NMBR on lymphocytes, ILC2s were cultured with a combination of survival and activating cytokines in the presence or absence of NMB or prostaglandin E2 (PGE2).

Row | Molecule | NMBR expression levels on ILC2s
1 | B1 | no changes
2 | B2 | no changes

Same assay, conditions: ILC2s day 7 post-Nb, survival and/or activating cytokines, day 4 post-culture

Row | Molecule | NMBR expression by ILC2s
3 | CCCCC[C@H](O)/C=C/[C@H]1[C@H](O)CC(=O)[C@@H]1C/C=C\CCCC(=O)O [PGE2, prostaglandin E2, reference compound] | significantly upregulated
4 | B2 | failed to upregulate
5 | B3 | failed to upregulate

System: TH2 cells
Experiment: Anti-CD3/anti-CD28 stimulated lymph node cells (day 7 post-Nb), IL-5/IL-13 ELISA
Assay type: cell-based, mouse
Details: LN cells day 7 post-Nb, anti-CD3 and anti-CD28, 48 hours
Protocol: FIGS. 7A-7I. Nmb treatment is sufficient to suppress allergic airway inflammation. Mice challenged with papain were treated with PBS or Nmb (i.t.) and (A) Lung ILC2s, (B) IL-5+ and IL-13+ ILC2s, and (C) eosinophils were evaluated. […] Mesenteric lymph nodes (MLNs) were isolated on day 7 post-Nb and single cells suspensions were treated with anti-CD3 and anti-CD28 in the presence or absence of Nmb for 48 hours and (E), IL-5 and (F) IL-13 were quantified in cell-free supernatants by ELISA. (F-I), Modified versions of Nmb (see Table 2) were tested for their ability to alter IL-5 and IL-13 production from anti-CD3 and anti-CD28 MLN cells isolated on day 7 post-Nb. P values were determined by two-tailed Student's t-tests. Blue asterisks represent comparisons between media treated controls and native Nmb. Red asterisks represent comparisons between media treated controls and modified version of Nmb as described in Table 2. (*,p<0.05), (**,p<0.01), (***,p<0.001) or (F-I).
FIGS. 8A-8B. Mesenteric lymph nodes (MLNs) were isolated on day 7 post-Nb and single cells suspensions were treated with anti-CD3 and anti-CD28 in the presence or absence of native Nmb or modified versions of the peptide for 48 hours and (A), IL-5 and (B) IL-13 were quantified in cell-free supernatants by ELISA. P values were determined by two-tailed Student's t-tests. Blue asterisks represent comparisons between media treated controls and native Nmb. Red asterisks represent comparisons between media treated controls and modified version of Nmb as described in Table 2. (*,p<0.05), (**,p<0.01), (***,p<0.001).
At the time points evaluated post-Nb, the majority of the type 2 cytokines are ILC2-derived (14) and any effects Nmb is having on TH2 cell responses may be difficult to detect. To address this, lung-draining LNs were isolated on day 7 post-Nb and stimulated with anti-CD3 and -CD28 to activate T cells in both the presence of absence of recombinant Nmb. LN cells treated with anti-CD3 and -CD28 produced increased amounts of IL-5, and IL-13 (FIGS. 7D, 7E).
Thus, Nmb can be employed to reduce type 2 cytokine-mediated inflammation. Native Nmb is a 10-mer peptide (SEQ ID NO: 1) that operates via its ability to bind the Nmb receptor (15). This example describes the results of an alanine scan to systematically replace various residues of the Nmb with alanine (Table 2) and the resulting ability of the variant Nmb peptides to inhibit type 2 cytokine production by TH2 cells. Further, caps were added to the native form of Nmb (SEQ ID NO: 1) and its bioactivity monitored (FIG. 5A).

Row | Molecule | capacity to inhibit IL-5 production compared to native Nmb | capacity to inhibit IL-13 production compared to native Nmb
6 | Methanesulfonyl-GNLWATGHFM-amide [K] | significantly reduced capacity | significantly greater capacity
7 | H2N-NLWATGHF-amide (H-NLWATGHF-NH2) [Y] | significant enhanced capacity | enhanced capacity
8 | H2N-LWATGHFM-amide (H-LWATGHFM-NH2) [Z] | – | enhanced capacity
9 | H2N-GNAWATGHFM-amide (H-GNAWATGHFM-NH2) [C] | significantly reduced capacity | significantly greater capacity
10 | H2N-GNLWATGFM-amide (H-GNLWATGFM-NH2) [U] | reduced capacity | –
11 | H2N-LWATGHF-amide (H-LWATGHF-NH2) [AC] | – | enhanced capacity
12 | H2N-ATGHFM-amide (H-ATGHFM-NH2) [AI] | – | enhanced capacity
13 | H2N-GNLWATGHFA-amide (H-GNLWATGHFA-NH2) | – | significantly greater capacity
14 | H2N-WATGHF-amide (H-WATGHF-NH2) [AH] | significant enhanced capacity | enhanced capacity
15 | H2N-GNLWATGH-amide (H-GNLWATGH-NH2) [X] | significant enhanced capacity | enhanced capacity
16 | H2N-GNLWATGHM-amide (H-GNLWATGHM-NH2) [V] | reduced capacity | reduced capacity
17 | H2N-GNLAATGHFM-amide (H-GNLAATGHFM-NH2) | – | significantly greater capacity
18 | H2N-GNLWATAHFM-amide (H-GNLWATAHFM-NH2) | significantly reduced capacity | significantly reduced capacity
19 | H2N-GNLWATG-amide (H-GNLWATG-NH2) [AA] | significant enhanced capacity | enhanced capacity
20 | H2N-GALWATGHFM-amide (H-GALWATGHFM-NH2) [B] | – | significantly greater capacity
21 | Ac-GLLWATGHFM-amide (Ac-GLLWATGHFM-NH2) [J] | – | significantly greater capacity
22 | H2N-NLWATGHFM-amide (H-NLWATGHFM-NH2) | reduced capacity | –
23 | H2N-GNLWATGHFM-NHMe | – | significantly greater capacity
24 | H2N-GNLWATGHF-amide (H-GNLWATGHF-NH2) | reduced capacity | –
25 | H2N-NLWATGH-amide (H-NLWATGH-NH2) [AB] | – | enhanced capacity
26 | H2N-GNWATGHFM-amide (H-GNWATGHFM-NH2) [P] | reduced capacity | –
27 | H2N-WATGHFM-amide (H-WATGHFM-NH2) [AD] | – | enhanced capacity
28 | H2N-GNLWATHFM-amide (H-GNLWATHFM-NH2) | – | enhanced capacity
29 | H2N-GNLWTGHFM-amide (H-GNLWTGHFM-NH2) [R] | reduced capacity | enhanced capacity
30 | H2N-GLWATGHFM-amide (H-GLWATGHFM-NH2) [O] | reduced capacity | –
31 | H2N-GNLWATGHAM-amide (H-GNLWATGHAM-NH2) | – | significantly reduced capacity
32 | H2N-LWATGH-amide (H-LWATGH-NH2) [AG] | significant enhanced capacity | enhanced capacity
33 | H2N-ANLWATGHFM-amide (H-ANLWATGHFM-NH2) | – | significantly greater capacity

Source: US20260174829A1, “METHODS OF REDUCING TYPE 2 CYTOKINE-MEDIATED INFLAMMATION USING NEUROMEDIN PEPTIDES” (Rutgers, The State University of New Jersey, priority 2018, published 2026)
